Where a name gives a salt, the structure may show the parent alone.

One assay deals with T1, human NCX1 (Homo sapiens, UniProt P32418).
T1 construct: expressed in transfected cells
Description: NCX1 inhibition, reverse mode (Ca2+ influx into cells), FLIPR Fluo-4 assay. In kind it is cell-based. Conditions: NCX1 reverse mode; at 30 μM; read-out: Inhibition in % at 30 μM (NCX1rv; IC50 value not determined). The method in brief:
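Max−min Fluo-4 fluorescence (520 nm, FLIPR, 240 points at 2 s) after 20 µM final gramicidin, which drives Na+ loading and reverse-mode Ca2+ entry, gave % inhibition and IC50. Test compound was preincubated 45 min at 16 °C with Fluo-4-loaded CHO cells stably expressing human NCX1, in pH 7.4 buffer containing 3.5 mM CaCl2 and probenecid.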
The inhibition is the relative decrease from the control value, in per cent. With `CC(C)c1ccc(NC(=O)c2cnc(Oc3ccc4c(c3)CC[C@@H](c3ccccc3)O4)s2)cc1` [compound 280], the inhibition at 30 µM was found to be 38%.

Still in this assay, the particulars now being: inhibition of NCX1 in reverse mode (Ca2+ influx into cells); read-out: NCX1rv IC50.
As usually defined, the IC50 is the midpoint of a concentration-inhibition curve. With `CC[C@H](C)[C@H](NC(=O)c1cnc(Oc2ccc3c(c2)CCC(c2cccnc2)O3)s1)C(=O)O` (stereo partly shown) [compound 270], the IC50 is 12500 nM.

`O=C(N[C@@H](Cc1ccccc1)C(=O)O)c1cnc(Oc2ccc3c(c2)CCC(c2cccnc2)O3)s1` (stereo partly shown) [compound 271]: the half-maximal inhibitory concentration (IC50) worked out at 12100 nM. The same measure, in the same setting: to `CC(C)[C@H](NC(=O)c1cnc(Oc2ccc3c(c2)CCC(c2cccnc2)O3)s1)C(=O)O` (stereo partly shown) [compound 272] belongs 15600 nM; to `CC(C)(C)[C@H](NC(=O)c1cnc(Oc2ccc3c(c2)CCC(c2cccnc2)O3)s1)C(=O)O` (stereo partly shown) [compound 273], 10100 nM. In the case of `Cc1cc(CNC(=O)c2cnc(Oc3ccc4c(c3)CC[C@@H](c3ccccc3)O4)s2)ccn1` [compound 274, hydrochloride], the IC50 was 400 nM. For the molecule `CCOC(=O)[C@H](C)NC(=O)c1cnc(Oc2ccc3c(c2)CCC(c2cccnc2)O3)s1` (stereo partly shown) [compound 276], the IC50 turned out to be 400 nM. Still for that read-out and setting: to `O=C(NCc1ccno1)c1cnc(Oc2ccc3c(c2)CCC(c2ccc(Cl)nc2)O3)s1` (stereo not shown) [compound 277, hydrochloride] belongs 2000 nM; to `O=C(NCc1ccnc(Cl)c1)c1cnc(Oc2ccc3c(c2)CCC(c2ccc(Cl)nc2)O3)s1` (stereo not shown) [compound 278, hydrochloride], 1300 nM.

For `CCCNC(=O)c1cnc(Oc2ccc3c(c2)CC[C@@H](c2ccccc2)O3)s1` [compound 281], the IC50 worked out at 600 nM.

On to `CC1(C)CN(C(=O)c2cnc(Oc3ccc4c(c3)CC[C@@H](c3ccccc3)O4)s2)CCN1` [compound 282], for which the IC50 worked out at 1200 nM. Still for that read-out and setting: to `O=C(c1cnc(Oc2ccc3c(c2)CC[C@@H](c2ccccc2)O3)s1)N1CC[C@H]2CNC[C@H]21` [compound 283, hydrochloride] belongs 600 nM; to `NC1C[C@@H]1NC(=O)c1cnc(Oc2ccc3c(c2)CC[C@@H](c2ccccc2)O3)s1` (stereo partly shown) [compound 284, hydrochloride], 200 nM. For `CN[C@H]1CN(C(=O)c2cnc(Oc3ccc4c(c3)CC[C@@H](c3ccccc3)O4)s2)CC[C@H]1C` [compound 285, hydrochloride], the 50% inhibitory concentration (IC50) stood at 900 nM.

With `CN(C)CC1CN(C(=O)c2cnc(Oc3ccc4c(c3)CC[C@@H](c3ccccc3)O4)s2)CCO1` (stereo partly shown) [compound 286], the half-maximal inhibitory concentration (IC50) is 1500 nM.

Regarding `O=C(NCC1CCCCN1)c1cnc(Oc2ccc3c(c2)CC[C@@H](c2ccccc2)O3)s1` (stereo partly shown) [compound 287], the IC50 worked out at 500 nM. Regarding `O=C(c1cnc(Oc2ccc3c(c2)CC[C@@H](c2ccccc2)O3)s1)N1CCCCC1` [compound 288], the IC50 worked out at 400 nM. On the same count and under the same terms, to `O=C(c1cnc(Oc2ccc3c(c2)CC[C@@H](c2ccccc2)O3)s1)N1CCC2(CCCNC2)C1` (stereo partly shown) [compound 290] belongs 600 nM.

Take `NCC1CCCN1C(=O)c1cnc(Oc2ccc3c(c2)CC[C@@H](c2ccccc2)O3)s1` (stereo partly shown) [compound 291]: the IC50 came out at 400 nM.

In the case of `NC1CCN(C(=O)c2cnc(Oc3ccc4c(c3)CC[C@@H](c3ccccc3)O4)s2)C1` (stereo partly shown) [compound 292], the concentration for half-maximal inhibition (IC50) came to 300 nM.

Turning to `NC[C@@H]1[C@H]2CC[C@H](C2)[C@H]1NC(=O)c1cnc(Oc2ccc3c(c2)CC[C@@H](c2ccccc2)O3)s1` [compound 293], the IC50 is 1000 nM.

For `COC(=O)CNC(=O)c1cnc(Oc2ccc3c(c2)CCC(c2ccccc2)O3)s1` (stereo not shown) [compound 294], the IC50 was found to be 200 nM. Still for that read-out and setting: next, `O=C(NCCO)c1cnc(Oc2ccc3c(c2)CCC(c2ccccc2)O3)s1` (stereo not shown) [compound 295]: 400 nM. With `Cc1noc(C)c1CCC(=O)NCc1cnc(Oc2ccc3c(c2)CC[C@@H](c2ccccc2)O3)s1` [compound 296], the IC50 came to 400 nM. The same measure, in the same setting: to `Cc1nn(C)c(C)c1CCC(=O)NCc1cnc(Oc2ccc3c(c2)CC[C@@H](c2ccccc2)O3)s1` [compound 297] belongs 1100 nM. Consider `O=C(c1cnc(Oc2ccc3c(c2)CCC(c2ccccc2)O3)s1)N1CC[C@@H](O)C1` (stereo partly shown) [compound 298], for which the IC50 stood at 600 nM. The same measure, in the same setting: to `Cc1ccccc1C1CCc2cc(Oc3ncc(C(=O)N4CC[C@@H](O)C4)s3)ccc2O1` (stereo partly shown) [compound 300] belongs 200 nM; to `CS(=O)(=O)c1ccc(C2CCc3cc(Oc4ncc(C(=O)NCc5ccno5)s4)ccc3O2)cc1` (stereo not shown) [compound 301], 6900 nM; to `NCC(=O)NCc1cnc(Oc2ccc3c(c2)CC[C@@H](c2ccccc2)O3)s1` [compound 302], 400 nM. Regarding `C[C@H](N)C(=O)NCc1cnc(Oc2ccc3c(c2)CC[C@@H](c2ccccc2)O3)s1` [compound 303], the IC50 came out at 300 nM. Take `N[C@@H](Cc1ccccc1)C(=O)NCc1cnc(Oc2ccc3c(c2)CC[C@@H](c2ccccc2)O3)s1` [compound 304]: the IC50 was found to be 1900 nM.

Regarding `O=C(NCC(O)CO)c1cnc(Oc2ccc3c(c2)CCC(c2ccccc2)O3)s1` (stereo not shown) [compound 305], the IC50 amounted to 300 nM. On the same count and under the same terms, to `CC(C)(C)OC(=O)CNC(=O)c1cnc(Oc2ccc3c(c2)CCC(c2ccccc2)O3)s1` (stereo not shown) [compound 306] belongs 500 nM; to `CC(C)OC(=O)CNC(=O)c1cnc(Oc2ccc3c(c2)CCC(c2ccccc2)O3)s1` (stereo not shown) [compound 307], 200 nM; to `CCOC(=O)CNC(=O)c1cnc(Oc2ccc3c(c2)CCC(c2ccccc2)O3)s1` (stereo not shown) [compound 308], 200 nM.

With `O=C(NCc1ccno1)c1cnc(Oc2ccc3c(c2)CCC(c2cnccn2)O3)s1` (stereo not shown) [compound 309], the IC50 turned out to be 4700 nM. In the case of `O=C(NCc1ccnc(Cl)c1)c1cnc(Oc2ccc3c(c2)CCC(c2cnccn2)O3)s1` (stereo not shown) [compound 310], the half-inhibitory concentration (IC50) stood at 2600 nM. Same read-out and setting: next, `OCCNCc1cnc(Oc2ccc3c(c2)CCC(c2ccccc2)O3)s1` (stereo not shown) [compound 311]: 100 nM; `O=C(c1cnc(Oc2ccc3c(c2)CCC(c2ccccc2)O3)s1)N(CCO)CCO` (stereo not shown) [compound 312]: 100 nM. The same measure, in the same setting: next, `CN1CCN(C(=O)c2cnc(Oc3ccc4c(c3)CCC(c3ccccc3)O4)s2)CC1` (stereo not shown) [compound 313]: 400 nM; `O=C(c1cnc(Oc2ccc3c(c2)CCC(c2ccccc2)O3)s1)N1CCOCC1` (stereo not shown) [compound 314]: 100 nM. For `O=C(c1cnc(Oc2ccc3c(c2)CCC(c2ccccc2)O3)s1)N1CCCCC1` (stereo not shown) [compound 316], the IC50 amounted to 500 nM. On the same count and under the same terms, to `CCCCNC(=O)c1cnc(Oc2ccc3c(c2)CCC(c2ccccc2)O3)s1` (stereo not shown) [compound 317] belongs 100 nM. The same measure, in the same setting: next, `CC(C)CNC(=O)c1cnc(Oc2ccc3c(c2)CCC(c2ccccc2)O3)s1` (stereo not shown) [compound 318]: 100 nM.

As for `OCCN(CCO)Cc1cnc(Oc2ccc3c(c2)CCC(c2ccccc2)O3)s1` (stereo not shown) [compound 319], the IC50 stood at 800 nM. The same measure, in the same setting: to `CC(C)NC(=O)c1cnc(Oc2ccc3c(c2)CCC(c2ccccc2)O3)s1` (stereo not shown) [compound 320] belongs 300 nM; to `CCc1ccccc1C1CCc2cc(Oc3ncc(C(=O)NCCN4CCNC4=O)s3)ccc2O1` (stereo not shown) [compound 322], 1100 nM.

`CCc1ccccc1C1CCc2cc(Oc3ncc(C(=O)NCCc4c(C)noc4C)s3)ccc2O1` (stereo not shown) [compound 323]: the IC50 worked out at 900 nM. The same measure, in the same setting: to `CCc1ccccc1C1CCc2cc(Oc3ncc(C(=O)NCc4ccno4)s3)ccc2O1` (stereo not shown) [compound 324] belongs 500 nM; to `Cc1ccccc1C1CCc2cc(Oc3ncc(CNC(=O)CN4C(=O)CNC4=O)s3)ccc2O1` (stereo not shown) [compound 328], 900 nM; to `Cc1cccc(C)c1C1CCc2cc(Oc3ncc(C(=O)NCc4ccno4)s3)ccc2O1` (stereo not shown) [compound 331], 5500 nM.

On to `CCCNC(=O)c1sc(Oc2ccc3c(c2)CCC(c2ccccc2C)O3)nc1C` (stereo not shown) [compound 332], for which the IC50 was determined as 10000 nM. The same measure, in the same setting: to `Cc1ccccc1C1CCc2cc(Oc3nc(C)c(C(=O)NCCN4CCNC4=O)s3)ccc2O1` (stereo not shown) [compound 333] belongs 600 nM. Still for that read-out and setting: next, `Cc1ccccc1C1CCc2cc(Oc3nc(C)c(C(=O)N4CC[C@@H](O)C4)s3)ccc2O1` (stereo partly shown) [compound 336]: 600 nM; `Cc1cccc(C)c1C1CCc2cc(Oc3ncc(C(=O)NCCO)s3)ccc2O1` (stereo not shown) [compound 337]: 7600 nM; `Cc1cccc(C)c1C1CCc2cc(Oc3ncc(C(=O)N(C)C)s3)ccc2O1` (stereo not shown) [compound 338]: 8700 nM. In the case of `NC(=O)c1cnc(Oc2ccc3c(c2)CCC(c2ccccc2)O3)s1` (stereo not shown) [compound 339], the IC50 was 400 nM.

Turning to `N[C@@H](CO)C(=O)NCc1cnc(Oc2ccc3c(c2)CCC(c2ccccc2)O3)s1` (stereo partly shown) [compound 340, hydrochloride], the IC50 was 900 nM.

Take `O=C(NCc1cnc(Oc2ccc3c(c2)CCC(c2ccccc2)O3)s1)[C@@H]1CCCN1` (stereo partly shown) [compound 341, hydrochloride]: the half-maximal inhibitory concentration (IC50) was determined as 900 nM. `Cc1ccc(F)cc1C1CCc2cc(Oc3ncc(C(=O)NCc4ccno4)s3)ccc2O1` (stereo not shown) [compound 344]: the 50% inhibitory concentration (IC50) came out at 800 nM.

On to `O=C(CN1CCCC1)NCc1cnc(Oc2ccc3c(c2)CCC(c2ccccc2)O3)s1` (stereo not shown) [compound 346, hydrochloride], for which the IC50 is 170 nM. Same read-out and setting: next, `Cc1ccc(F)cc1C1CCc2cc(Oc3ncc(C(=O)NCCN4CCNC4=O)s3)ccc2O1` (stereo not shown) [compound 349]: 200 nM; `O=C(NCCO)c1csc(Oc2ccc3c(c2)CC[C@@H](c2ccccc2)O3)n1` [compound 350]: 120 nM. With `CCCNC(=O)c1csc(Oc2ccc3c(c2)CC[C@@H](c2ccccc2)O3)n1` [compound 351], the IC50 amounted to 110 nM. On the same count and under the same terms, next, `O=C(NCc1ccno1)c1csc(Oc2ccc3c(c2)CC[C@@H](c2ccccc2)O3)n1` [compound 353]: 92 nM; `CC(O)CNC(=O)c1cnc(Oc2ccc3c(c2)CCC(c2ccccc2)O3)s1` (stereo not shown) [compound 354]: 160 nM. Turning to `O=C(NC1CCCC1O)c1cnc(Oc2ccc3c(c2)CCC(c2ccccc2)O3)s1` (stereo not shown) [compound 355], the IC50 stood at 250 nM.
